# In patent publication US20230405063A1, “USE OF PROBIOTIC COMPONENT AND PHARMACEUTICAL COMPOSITION CONTAINING PROBIOTIC COMPONENT” (CHENGDU KUACHANGAOPU MEDICAL TECHNOLOGY CO., LTD., priority 2020, published 2023):
# How the values were obtained:
# Type in all cases: in vivo
# [1] = system: gastric tumor cells (BGC823); experiment: Tumor inhibition in BGC823 tumor-bearing nude mice (Example 5, Table 8); details: intratumoral injection once, 150 μl/mouse, 7th day
# Excerpt: The method for determining the effect of combined drug administration in animal experiments was Burgi method (Burgi Y. Pharmacology; Drug actions and reactions. Cancerres. 1978, 38(2), 284-285). The Burgi method was modified by Zhengjun JIN (Zhengjun JIN, Equal probability and curve and “Q50”, Journal of the Second Shanghai Medical College; 1981, 1, 75-86) with q calculated as: q=EA+B/(EA+EB−EA×EB). In the following examples of the present invention, the combinational pharmaceutical efficacies (drug efficacies) of drug A and drug B co-administration was determined by ratio q of actual pharmaceutical efficacy (drug efficacy)/theoretical pharmaceutical efficacy (drug efficacy) according to Zhengjun JIN method, as follows.
# Nude mice were used as experimental subjects, and gastric tumor cells (BGC823) were used as modeling cells, 1×10^5 cells/mouse were injected into the right axilla subcutaneously for transplantation tumor modeling, and the average tumor volume of successfully modeled nude mice was 164.4 mm^3. The model animals were randomly divided into 14 groups, and the drugs according to the pharmacological constitutions in Table 8 were administered via intratumoral injection. Each group was dosed once with an injection volume of 150 μl/mouse; wherein the pharmaceutical compositions of groups 5, 11 were semi-fluid, the pharmaceutical compositions of other groups are liquid. On the 7th day after drug administration, the animals were euthanized, and after dissection, the tumor tissue was taken out to determine the tumor weight, and the tumor inhibition rate (r) was calculated relative to the negative control group. Further, the actual efficacy/expected efficacy ratio q of a drug could also be calculated according to the therapeutic effect (tumor inhibition rate).
# [2] = system: outer lateral muscle mass of the right leg; experiment: Local effect on normal muscle tissue, area of abnormal regions, BALB/c mice (Example 9, Table 15); details: dosed once into muscle, 100 ul/mouse, 7th day
# Protocol: BALB/c mice were used as experimental subjects, and the model animals were randomly divided into 4 groups, having 6 animals in each group. The drugs were administered according to Table 15. […] On the 7th day after drug administration, the animals were euthanized. The specimens of the outer lateral muscle mass of the right leg were taken out by autopsy, and perform a general pathological analysis. The sections were measured for the area of abnormal regions such as necrosis and nodules that distinguished from normal muscle.
# [3] = system: outer lateral muscle mass of the right leg; experiment: Local effect on normal muscle tissue, area of abnormal regions, nude mice
# Protocol: The animals were euthanized on the 7th day after drug administration, and the specimens of the outer lateral muscle mass of the right leg from the nude mice were taken out by autopsy, and the areas of abnormal regions different from normal muscles, such as of necrosis and nodules, were measured after sectioning and washing.
# Each group was dosed once with an injection volume of 100 μl/mouse by administering to the outer lateral muscle mass of the right leg. On the 7th day after drug administration, the animals were euthanized, and the specimens of the outer lateral muscle mass of the right leg were taken out after dissection to perform a general pathological analysis. The sections were measured for the area of abnormal regions that distinguished from normal muscle, such as necrosis and nodules.
Compound,Tumor inhibition rate r [1],Tumor weight (x ± s) [1],Area of abnormal regions [2],"Area of abnormal regions (necrosis, nodules) ([3]; dosed once into muscle 100 μl/mouse, 7th day (b197 experiment))","Areas of the abnormal regions (necrosis, nodules) ([3]; injection into muscle 100 ul/mouse, 7th day (b168 experiment))"
"O=c1[nH]cc(F)c(=O)[nH]1 [1% 5-fluorouracil, 5-fluorouracil]",41.4%,0.132 ± 0.069 g,,,
"CCO [75% ethanol, ethanol]",,,33.16 ± 13.44 mm^2,32.24±13.71 mm^2,35.14±15.92 mm^2
